Experimental findings from patent publication EP1401829B1, “NOVEL HETEROCYCLIC ANTIBACTERIAL COMPOUNDS” (Microbiotix, Inc., priority 2001, dated 2002) are described below.

Marks after values point to notes of the source that are not given here.

Data set [1] has as its system Staphylococcus aureus (Smith strain). As to the kind of experiment: Protection of mice from lethal intraperitoneal infection, compound given intraperitoneally. The conditions noted are these: Swiss Webster mice, groups of five, 15 minutes after infection. Format: in vivo. On the procedure:
• Figures 1A and 1B. Figure 1A is a diagram of the structural formula for Compound 2 (i.e., 3-{4-[1-(1-cyclopropyl-3-carboxy-4-oxo-6-fluoro-7-quinolyl)-4-piperazinyl]butyl}-6-(3-ethyl- 4-methylanilino)uracil). • Figure 1B is a bar graph showing number of survivors in each group of five mice at 24 hours after intraperitoneal infection with 1 x 10^8 colony forming units (CFU) of Staphylococcus aureus (Smith strain) and followed 15 minutes post infection by administration of Compound 2 at a dose of 0 (Vehicle Control), 1, 3, and 10 mg of compound per kg of body weight. Vancomycin at a dose of 10 mg/kg of body weight served as a positive control for antibiotic activity. See text for details. • Figures 2A and 2B. Figure 2A is a diagram of the structural formula for Compound 10 (i.e., 3-{4-[1-(1-cyclopropyl-3-carboxy-4-oxo-6-fluoro-7-quinolyl)-4-piperazinyl]butyl}-6-(3-ethyl-4-methylanilino)uracil methanesulfonate). • Figure 2B is a bar graph showing number of survivors of a group of five mice at 24 hours after intraperitoneal infection with Staphylococcus aureus (Smith strain) as in Figure 1B, except that Compound 10 was administered to each animal at 0, 0.1, 0.3, 1.0, 3.0, and 10 mg/kg body weight at 15 minutes post infection. Controls were the same as in Figure 1B. See text for details. • Figures 3A and 3B. […] Abbreviations: cPr is cyclopropyl; Et is ethyl; dFPh is 2,4-difluorophenyl. • Figure 3B is a bar graph showing number of survivors in each group of five mice at 24 hours after intraperitoneal infection with Staphylococcus aureus (Smith strain) as in Figure 1, except that 15 minutes after infection, the mice in each group received a dose of 0.5 mg/kg of body weight of compound 10, 4, 5, 6, 7, 8, or 12. Controls were the same as in Figure 1. See text for details.
(§1) Swiss Webster mice, ca. 20 g each, were infected with Staphylococcus aureus (Smith strain) by the intraperitoneal route. Test compounds (2, 4, 5, 6, 7, 8, 10, 12) were dissolved in 10% dimethylsulfoxide in peanut oil to a concentration of 2 mg/ml. Vancomycin was used as positive control drug (i.e., protection from lethal infection). Fifteen minutes after infection, test compounds, vancomycin, or vehicle alone were given intraperitoneally to groups of five mice each. Animals were monitored for three days, and the number of mice surviving was tabulated for each treatment.

Data set [2] concerns Enterococcus faecalis (ATCC 29212). Put plainly: In vivo efficacy of Compound 70 in mouse models. The conditions noted are these: mice, 3x10^7 CFU/mouse + 5% Mucin. The protocol: as §1
(§2) Using the same basic procedure as described above, the in vivo efficacy of Compound 70 was also evaluated at various doses in mice infected with S. aureaus (Smith), MRSA 1094, Enterococcus faecalis, or vancomycin-resistant Enterococcus faecalis strain VRE 700802. […] Negative controls were mice infected that received no treatment. Mucin was employed as an adjuvant to facilitate bacterial infection in mice, where indicated.

Data set [3] relates to Staphylococcus aureus (Smith). Put plainly: In vivo efficacy of Compound 70 in mouse models. The conditions noted are these: mice, 10^8 CFU/mouse, regimen 1 (t=0). The protocol: as §1, §2
Data set [4] concerns enterococci or staphylococci strains, including MRSA and VRE strains. As to the kind of experiment: In vivo efficacy of Compound 70 in mouse models, overall statement. The conditions noted are these: mice; administration from distant parenteral sites (i.e., iv, sc, or im). On the procedure:
as §2

The subject of another data set is VRE 700802. Put plainly: In vivo efficacy of Compound 70 in mouse models. Details: species or system Enterococcus faecalis. The conditions noted are these: mice, 3x10^8 CFU/mouse + 5% Mucin. On the procedure: as §1, §2
A further data set deals with MRSA 1094. As to the kind of experiment: In vivo efficacy of Compound 70 in mouse models. The arrangement: species or system Staphylococcus aureus. The conditions noted are these: mice, 10^7 CFU/mouse + 5% Mucin, regimen 2 (t=0,2). The protocol: as §1, §2
Data set [5] in a line: Overt toxicity observed in mouse infection models. The class given is in vivo. The conditions noted are these: mice; at therapeutic doses (doses providing survival above no treatment control). On the procedure: as §2
Where [6] appears, read: dosage range 1-10 mg/kg body weight intraperitoneally.
[7] abbreviates: dose 50 mg/kg, regimen 2 (t=0,2).
Setting [8] is: dose 50 mg/kg, regimen 2 (t=0,3).
Where [9] appears, read: dose 75 mg/kg, regimen 2 (t=0,2-).
[10] abbreviates: dose 75 mg/kg, regimen 2 (t=0,3).
The mark [11] stands for this setting: dose 100 mg/kg, regimen 1 (t=0).

For the compound `CCc1cc(Nc2cc(=O)n(CCCCN3CCN(c4cc5c(cc4F)c(=O)c(C(=O)O)cn5C4CC4)CC3)c(=O)[nH]2)ccc1C` [Compound 2, 3-{4-[1-(1-cyclopropyl-3-carboxy-4-oxo-6-fluoro-7-quinolyl)-4-piperazinyl]butyl}-6-(3-ethyl-4-methylanilino)uracil], in data set [1] (setting [6]), the “protection of infected mice (number of survivors)” value was “all five”.
For the compound `CCc1cc(Nc2cc(=O)n(CCCCN3CCN(c4cc5c(cc4F)c(=O)c(C(=O)O)cn5C4CC4)CC3)c(=O)[nH]2)ccc1C.CS(=O)(=O)O` [Compound 10, 3-{4-[1-(1-cyclopropyl-3-carboxy-4-oxo-6-fluoro-7-quinolyl)-4-piperazinyl]butyl}-6-(3-ethyl-4-methylanilino)uracil methanesulfonate], the “protection of infected mice (number of survivors)” value is “one of five” in data set [1] (0.3 mg per kg body weight intraperitoneally), “complete protection” in data set [1] (1 mg/kg or higher intraperitoneally) and “provided protection in the same dosage range as Compound 2” in data set [1] (setting [6]).
Consider `CCc1cc(Nc2cc(=O)n(CCCCN3CCN(c4c(F)cc5c(=O)c(C(=O)O)cn(C6CC6)c5c4F)CC3C)c(=O)[nH]2)ccc1C` (stereo not shown) [Compound 70, 3-{4-[1-(1-cyclopropyl-3-carboxy-4-oxo-6,8-difluoro-7-quinolyl)-3-methyl-4-piperazinyl]butyl}-6-(3-ethyl-4-methylanilino)uracil], for which the “% Survival at 72 hours” value in data set [2] (dose 25 mg/kg, regimen 1 (t=0)) is on record as 40% (2/5); in data set [2] (dose 25 mg/kg, regimen 2 (t=0,2)) it was 40% (2/5); in data set [2] (dose 50 mg/kg, regimen 1 (t=0)), 60% (3/5); in data set [2] (setting [7]), 80% (8/10)**; in data set [2] (dose 75 mg/kg, regimen 1 (t=0)), 80% (4/5); in data set [3] (dose 3.125 mg/kg), 0% (0/5). For the same compound, the “% Survival at 72 hours” value is 40% (6/15) in data set [3] (dose 12.5 mg/kg); 100% (20/20)** in data set [3] (dose 25 mg/kg); 100% (10/10)** in data set [3] (dose 50 mg/kg); 10% (1/10) in the data set on VRE 700802 (setting [7]); 0% (0/5) in the data set on VRE 700802 (setting [8]); 0% (0/5) with VRE 700802 (setting [9]). Besides, the “% Survival at 72 hours” value is 40% (2/5) with VRE 700802 (setting [10]); 0% (0/5) with VRE 700802 (setting [11]); 0% (0/5) with MRSA 1094 (dose 25 mg/kg); 55% (11/20)* with MRSA 1094 (dose 50 mg/kg); 80% (4/5) in the data set on MRSA 1094 (dose 75 mg/kg). In addition, the “activity against intra-peritoneal challenge” value in data set [4] is “dose-related activity”. Moreover, the “Mean Survival Time” value with VRE 700802 (setting [7]) was 45 h; in the data set on VRE 700802 (setting [8]) it was 35 h; in the data set with VRE 700802 (setting [9]), 50 h; in the data set on VRE 700802 (setting [10]), 50 h; in the data set with VRE 700802 (setting [11]), 34 h. Also, the overt toxicity entry in data set [5] was “no overt toxicity”.
